Assay results from publication PMC12766721, “Regio- and Stereoselective Halogenation by an Iron(II)- and 2‑Oxoglutarate-Dependent Halogenase in the Biosynthesis of Halogenated Nucleosides” (Journal of the American Chemical Society, 2025).

Molecular target: AdeV
Assay: stopped-flow absorption kinetics (substrate-dependent formation of the […] nm chloro-ferryl feature), with freeze-quench Mössbauer and LC–MS turnover of purified enzyme
Format: biochemical, Actinomadura sp. ATCC 39365

Nc1ncnc2c1ncn2[C@H]1C[C@H](O)[C@@H](COP(=O)(O)O)O1 [compound 1, 2′-deoxyadenosine monophosphate]
Kd: ~28 mM
